Measurements: PubChem BioAssay (NCI)
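Here, GI50 denotes the concentration required for 50% inhibition of growth. TGI is the concentration that stops growth completely.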

Experiments:
Assay in all cases: growth of human tumour cells (NCI), 384-well format
UACC-257 melanoma = tested on: UACC-257 melanoma
OVCAR-8 ovarian = tested on: OVCAR-8 ovarian
OVCAR-5 ovarian = tested on: OVCAR-5 ovarian
T-47D breast = tested on: T-47D breast
HCC-2998 colon = tested on: HCC-2998 colon
K-562 leukemia = tested on: K-562 leukemia
DU-145 prostate = tested on: DU-145 prostate
U251 glioblastoma = tested on: U251 glioblastoma
SF-295 CNS = tested on: SF-295 CNS
MDA-MB-231 breast = tested on: MDA-MB-231 breast
COLO 205 colon = tested on: COLO 205 colon
NCI-H23 lung = tested on: NCI-H23 lung
RPMI-8226 leukemia = tested on: RPMI-8226 leukemia
SF-539 CNS = tested on: SF-539 CNS
SNB-19 CNS = tested on: SNB-19 CNS
A498 renal = tested on: A498 renal
786-0 renal = tested on: 786-0 renal
NCI-H322M lung = tested on: NCI-H322M lung
HS 578T breast = tested on: HS 578T breast
UO-31 renal = tested on: UO-31 renal
HCT-15 colon = tested on: HCT-15 colon
ACHN renal = tested on: ACHN renal
MOLT-4 leukemia = tested on: MOLT-4 leukemia
NCI/ADR-RES ovarian = tested on: NCI/ADR-RES ovarian
SK-MEL-5 melanoma = tested on: SK-MEL-5 melanoma
MDA-MB-468 breast = tested on: MDA-MB-468 breast
RXF 393 renal = tested on: RXF 393 renal
NCI-H522 lung = tested on: NCI-H522 lung
OVCAR-3 ovarian = tested on: OVCAR-3 ovarian

SMILES: CNC(=O)c1c(F)cccc1Nc1nc(Nc2cc3c(cc2OC)CCN3C(=O)CN(C)C)nc2[nH]ccc12
- GI50 (UACC-257 melanoma): 1720 nM
- TGI (UACC-257 melanoma): 3110 nM
- GI50 (OVCAR-8 ovarian): 1710 nM
- TGI (OVCAR-8 ovarian): 3120 nM
- GI50 (OVCAR-5 ovarian): 1480 nM
- TGI (OVCAR-5 ovarian): 3240 nM
- GI50 (T-47D breast): 1940 nM
- TGI (T-47D breast): 3380 nM
- GI50 (HCC-2998 colon): 1410 nM
- TGI (HCC-2998 colon): 2760 nM
- GI50 (K-562 leukemia): 1750 nM
- TGI (K-562 leukemia): 3140 nM
- GI50 (DU-145 prostate): 1820 nM
- TGI (DU-145 prostate): 3600 nM
- GI50 (U251 glioblastoma): 1900 nM
- TGI (U251 glioblastoma): 3350 nM
- GI50 (SF-295 CNS): 1870 nM
- TGI (SF-295 CNS): 3290 nM
- GI50 (MDA-MB-231 breast): 1590 nM
- TGI (MDA-MB-231 breast): 2980 nM
- GI50 (COLO 205 colon): 152 nM
- TGI (COLO 205 colon): 1230 nM
- GI50 (NCI-H23 lung): 1330 nM
- TGI (NCI-H23 lung): 2750 nM
- GI50 (RPMI-8226 leukemia): 1140 nM
- TGI (RPMI-8226 leukemia): 2370 nM
- GI50 (SF-539 CNS): 1800 nM
- TGI (SF-539 CNS): 3200 nM
- GI50 (SNB-19 CNS): 2350 nM
- TGI (SNB-19 CNS): 4810 nM
- GI50 (A498 renal): 1820 nM
- TGI (A498 renal): 3220 nM
- GI50 ([…]-0 renal): 1480 nM
- TGI (786-0 renal): 2840 nM
- GI50 (NCI-H322M lung): 1580 nM
- TGI (NCI-H322M lung): 3180 nM
- GI50 (HS 578T breast): 1780 nM
- TGI (HS 578T breast): 3190 nM
- GI50 (UO-31 renal): 1840 nM
- TGI (UO-31 renal): 3290 nM
- GI50 (HCT-15 colon): 1250 nM
- TGI (HCT-15 colon): 2610 nM
- GI50 (ACHN renal): 1740 nM
- TGI (ACHN renal): 3170 nM
- GI50 (MOLT-4 leukemia): 968 nM
- TGI (MOLT-4 leukemia): 2140 nM
- GI50 (NCI/ADR-RES ovarian): 2230 nM
- TGI (NCI/ADR-RES ovarian): 4980 nM
- GI50 (SK-MEL-5 melanoma): 1220 nM
- TGI (SK-MEL-5 melanoma): 2480 nM
- GI50 (MDA-MB-468 breast): 1560 nM
- TGI (MDA-MB-468 breast): 2920 nM
- GI50 (RXF 393 renal): 1720 nM
- TGI (RXF 393 renal): 3110 nM
- GI50 (NCI-H522 lung): 1910 nM
- TGI (NCI-H522 lung): 3330 nM
- GI50 (OVCAR-3 ovarian): 1800 nM
- TGI (OVCAR-3 ovarian): 3250 nM
